pEC50: −log10 of the molar value. Where two headings read alike, the source gives them in different places.
Target: T1, mAChR rM4 (Rattus norvegicus, UniProt P08485)
T1 construct: expressed in transfected cells
T1 sequence (P08485 1-478): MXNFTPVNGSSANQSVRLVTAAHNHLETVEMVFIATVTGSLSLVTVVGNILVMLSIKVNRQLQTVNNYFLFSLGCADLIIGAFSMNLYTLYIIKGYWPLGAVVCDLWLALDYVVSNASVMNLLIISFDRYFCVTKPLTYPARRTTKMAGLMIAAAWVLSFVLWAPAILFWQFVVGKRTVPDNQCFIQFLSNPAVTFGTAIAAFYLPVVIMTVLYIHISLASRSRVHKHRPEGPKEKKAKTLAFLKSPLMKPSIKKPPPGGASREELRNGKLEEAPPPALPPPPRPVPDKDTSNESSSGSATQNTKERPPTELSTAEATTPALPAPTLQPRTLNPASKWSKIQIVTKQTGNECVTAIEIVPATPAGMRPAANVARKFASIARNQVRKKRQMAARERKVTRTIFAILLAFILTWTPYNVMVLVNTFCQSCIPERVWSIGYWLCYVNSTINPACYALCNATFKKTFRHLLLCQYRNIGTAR
Assay: mAChR rM4 cell-based functional assay (calcium mobilization, potentiation of EC20 acetylcholine response)
Conditions: for Emax at 30 µM: %ACh maximum at 30 μM; for pEC50 / EC50: rM4-transfected CHO-K1 cells, positive allosteric modulation of EC20 ACh response; for pEC50: read-out: EC50; for EC50: read-out: pEC50 (converted)
Source text: Chinese hamster ovary (CHO-K1) cells stably expressing rat (r)M1 were purchased from the American Type Culture Collection and cultured according to their indicated protocol. CHO cells stably expressing human (h)M2, hM3, and hM5 were described previously (Levey A I, et al., (1991) J Neurosci 11:3218-3226.); hM1 and hM4 cDNAs were purchased from Missouri S&T cDNA Resource; rM4 cDNA was provided by T. I. Bonner (National Institutes of Health, Bethesda, Md.). rM2 and rM3 were cloned from a rat brain cDNA library and sequence verified. hM1, rM2, rM3, hM4, and rM4 cDNAs were used to stably transfect CHO-K1 cells purchased from the American Type Culture Collection using Lipofectamine® 2000. To make stable rM2, hM2, rM3, hM4, and rM4 cell lines for use in calcium mobilization assays, these cells also were stably transfected with a chimeric G-protein (Gqi5) (provided by B. R. Conklin, University of California, San Francisco) using Lipofectamine® 2000. rM1, hM1, rM3, hM3, rM5, and hM5 cells were grown in Ham's F-12 medium containing 10% heat-inactivated fetal bovine serum (FBS), 20 mM HEPES, and 50 μg/mL G418 sulfate. rM2-Gqi5, hM2-Gqi5, and hM4-Gqi5 cells were grown in the same medium also containing 500 μg/mL hygromycin B. Stable rM4-Gqi5 cells were grown in DMEM containing 10% heat-inactivated FBS, 20 mM HEPES, 400 μg/mL G418 sulfate, and 500 μg/mL Hygromycin B.
For high throughput measurement of agonist-evoked increases in intracellular calcium, CHO-K1 cells stably expressing the target muscarinic receptor were plated in growth medium lacking G418 and hygromycin at 15,000 cells/20 μL/well in Greiner 384-well black-walled, tissue culture (TC)-treated, clear-bottom plates (VWR). Cells were incubated overnight at 37° C. and 5% CO2. The next day, cells were washed using an ELX 405 (BioTek) with four washes (80 μL) of assay buffer then aspirated to 20 μL. Next, 20 μL of 16 μM Fluo-4/acetoxymethyl ester (Invitrogen, Carlsbad, Calif.) prepared as a 2.3 mM stock in DMSO and mixed in a 1:1 ratio with 10% (w/v) Pluronic F-127 and diluted in assay buffer was added to the wells and the cell plates were incubated for […] at 37° C. and 5% CO2. Dye was removed by washing with the ELX 405 (four 80 μL washes of assay buffer) then aspirated to 20 μL. Compound master plates were formatted in an 11 point CRC format (1:3 dilutions) in 100% DMSO with a starting concentration of 10 mM using the BRAVO liquid handler (Agilent). Test compound CRCs were then transferred to daughter plates (240 nL) using the Echo acoustic plate reformatter (Labcyte, Sunnyvale, Calif.) and then diluted into assay buffer (40 μL) to a 2× stock using a Thermo Fisher Combi (Thermo Fisher Scientific, Waltham, Mass.).
Calcium flux was measured using the Functional Drug Screening System (FDSS) 6000 (Hamamatsu Corporation, Tokyo, Japan) as an increase in the fluorescent static ratio. Compounds were applied to cells (20 μL, 2×) using the automated system of the FDSS 6000 at 4 s into the 300 s protocol and the data were collected at 1 Hz. At 144 s into the 300 s protocol, 10 μL of an EC20 concentration of the muscarinic receptor agonist acetylcholine was added (5×), followed by the addition of 12 μL an EC80 concentration of acetylcholine at the 230 s time point (5×). Agonist activity was analyzed as a concentration-dependent increase in calcium mobilization upon compound addition. Positive allosteric modulator activity was analyzed as a concentration-dependent increase in the EC20 acetylcholine response. Antagonist activity was analyzed as a concentration-dependent decrease in the EC80 acetylcholine response. Concentration-response curves were generated using a four-parameter logistical equation in XLfit™ curve fitting software (IDBS, Bridgewater, N.J.) for Excel (Microsoft, Redmond, Wash.) or Prism (GraphPad Software, Inc., San Diego, Calif.). […]

Emax at 30 µM [%] | pEC50 | EC50 [nM] | SMILES
64 | 7.20 |  | Cc1nnc2sc3c(NC4CN(S(C)(=O)=O)C4)nn(C)c3c2c1C [Compound 15, 1,7,8-trimethyl-N-(1-(methylsulfonyl)azetidin-3-yl)-1H-pyrazolo[3′,4′:4,5]thieno[2,3-c]pyridazin-3-amine]
69 | 6.77 |  | CC(=O)N1CC(Nc2nn(C)c3c2sc2nnc(C)c(C)c23)C1 [Compound 14, 1-(3-((1,7,8-trimethyl-1H-pyrazolo[3′,4′:4,5]thieno[2,3-c]pyridazin-3-yl)amino)azetidin-1-yl)ethanone]
57 | 6.89 |  | Cc1nnc2sc3c(NCc4ccc(S(C)(=O)=O)cc4)nn(C)c3c2c1C [Compound 2, 1,7,8-trimethyl-N-(4-(methylsulfonyl)benzyl)-1H-pyrazolo[3′,4′:4,5]thieno[2,3-c]pyridazin-3-amine]
60 |  | 38.9 | Cc1nnc2sc3c(NCc4ccoc4)nn(C)c3c2c1C [Compound 7, N-(furan-3-ylmethyl)-1,7,8-trimethyl-1H-pyrazolo[3′,4′:4,5]thieno[2,3-c]pyridazin-3-amine]
55 | 7.32 |  | COc1ccc(CNc2nn(C)c3c2sc2nnc(C)c(C)c23)cc1 [Compound 1, N-(4-methoxybenzyl)-1,7,8-trimethyl-1H-pyrazolo[3′,4′:4,5]thieno[2,3-c]pyridazin-3-amine]
51 | 5.74 |  | CC(=O)N1CCC(Nc2nn(C)c3c2sc2nnc(C)c(C)c23)CC1 [Compound 20, 1-(4-((1,7,8-trimethyl-1H-pyrazolo[3′,4′:4,5]thieno[2,3-c]pyridazin-3-yl)amino)piperidin-1-yl)ethanone]
 | < 5.00 |  | Cc1nnc2sc3c(NCC4CCNCC4)nn(C)c3c2c1C [Compound 22, 1,7,8-trimethyl-N-(piperidin-4-ylmethyl)-1H-pyrazolo[3′,4′:4,5]thieno[2,3-c]pyridazin-3-amine]
58 |  | 25.1 | Cc1nnc2sc3c(NC4CN(C(=O)OC(C)(C)C)C4)nn(C)c3c2c1C [Compound 9, tert-butyl 3-((1,7,8-trimethyl-1H-pyrazolo[3′,4′:4,5]thieno[2,3-c]pyridazin-3-yl)amino)azetidine-1-carboxylate]
46 | 6.47 |  | Cc1nnc2sc3c(NCC4CC4)nn(C)c3c2c1C [Compound 3, N-(cyclopropylmethyl)-1,7,8-trimethyl-1H-pyrazolo[3′,4′:4,5]thieno[2,3-c]pyridazin-3-amine]
54 |  | 14.1 | Cc1nnc2sc3c(NCc4ccc(F)c(S(C)(=O)=O)c4)nn(C)c3c2c1C [Compound 5, N-(4-fluoro-3-(methylsulfonyl)benzyl)-1,7,8-trimethyl-1H-pyrazolo[3′,4′:4,5]thieno[2,3-c]pyridazin-3-amine]
61 | 5.60 |  | Cc1nnc2sc3c(NCC4CCN(S(C)(=O)=O)CC4)nn(C)c3c2c1C [Compound 24, 1,7,8-trimethyl-N-((1-(methylsulfonyl)piperidin-4-yl)methyl)-1H-pyrazolo[3′,4′:4,5]thieno[2,3-c]pyridazin-3-amine]
50 | 6.74 |  | Cc1nnc2sc3c(NCc4ccco4)nn(C)c3c2c1C [Compound 4, N-(furan-2-ylmethyl)-1,7,8-trimethyl-1H-pyrazolo[3′,4′:4,5]thieno[2,3-c]pyridazin-3-amine]
31 | 5.28 |  | Cc1nnc2sc3c(NC4CCNCC4)nn(C)c3c2c1C [Compound 18, 1,7,8-trimethyl-N-(piperidin-4-yl)-1H-pyrazolo[3′,4′:4,5]thieno[2,3-c]pyridazin-3-amine]
55 | 6.30 |  | Cc1cc(CNc2nn(C)c3c2sc2nnc(C)c(C)c23)no1 [Compound 12, 1,7,8-trimethyl-N-((5-methylisoxazol-3-yl)methyl)-1H-pyrazolo[3′,4′:4,5]thieno[2,3-c]pyridazin-3-amine]
58 | 5.96 |  | Cc1nnc2sc3c(NC4CCN(S(C)(=O)=O)CC4)nn(C)c3c2c1C [Compound 19, 1,7,8-trimethyl-N-(1-(methylsulfonyl)piperidin-4-yl)-1H-pyrazolo[3′,4′:4,5]thieno[2,3-c]pyridazin-3-amine]
55 | 6.40 |  | Cc1nnc2sc3c(NC4CCOC4)nn(C)c3c2c1C (stereo not drawn) [Compound 8, 1,7,8-trimethyl-N-(tetrahydrofuran-3-yl)-1H-pyrazolo[3′,4′:4,5]thieno[2,3-c]pyridazin-3-amine]
55 |  | 12.9 | Cc1nnc2sc3c(NCc4ccc5c(c4)OCCO5)nn(C)c3c2c1C [Compound 13, N-((2,3-dihydrobenzo[b][1,4]dioxin-6-yl)methyl)-1,7,8-trimethyl-1H-pyrazolo[3′,4′:4,5]thieno[2,3-c]pyridazin-3-amine]
56 | 7.26 |  | Cc1ncsc1CNc1nn(C)c2c1sc1nnc(C)c(C)c12 [Compound 11, 1,7,8-trimethyl-N-((4-methylthiazol-5-yl)methyl)-1H-pyrazolo[3′,4′:4,5]thieno[2,3-c]pyridazin-3-amine]
44 | 5.74 |  | CC(=O)N1CCC(CNc2nn(C)c3c2sc2nnc(C)c(C)c23)CC1 [Compound 23, 1-(4-(((1,7,8-trimethyl-1H-pyrazolo[3′,4′:4,5]thieno[2,3-c]pyridazin-3-yl)amino)methyl)piperidin-1-yl)ethanone]
47 | 6.68 |  | Cc1nnc2sc3c(NC4CCN(C(=O)OC(C)(C)C)CC4)nn(C)c3c2c1C [Compound 17, tert-butyl 4-((1,7,8-trimethyl-1H-pyrazolo[3′,4′:4,5]thieno[2,3-c]pyridazin-3-yl)amino)piperidine-1-carboxylate]
56 | 7.01 |  | Cc1nnc2sc3c(NC4CCSC4)nn(C)c3c2c1C (stereo not drawn) [Compound 6, 1,7,8-trimethyl-N-(tetrahydrothiophen-3-yl)-1H-pyrazolo[3′,4′:4,5]thieno[2,3-c]pyridazin-3-amine]
53 |  | 30.9 | Cc1nnc2sc3c(NCc4cccs4)nn(C)c3c2c1C [Compound 10, 1,7,8-trimethyl-N-(thiophen-2-ylmethyl)-1H-pyrazolo[3′,4′:4,5]thieno[2,3-c]pyridazin-3-amine]
42 | 6.15 |  | Cc1nnc2sc3c(NCC4CCN(C(=O)OC(C)(C)C)CC4)nn(C)c3c2c1C [Compound 21, tert-butyl 4-(((1,7,8-trimethyl-1H-pyrazolo[3′,4′:4,5]thieno[2,3-c]pyridazin-3-yl)amino)methyl)piperidine-1-carboxylate]

From patent US9056875B2, “Substituted pyrazolo[3′,4′:4,5]thieno[2,3-C]pyridazin-3-amine analogs as positive allosteric modulators of the muscarinic acetylcholine receptor M4” (Vanderbilt University, priority 2012, dated 2015)
